Assay type in all cases: cell-based
Assay [1] has as its system RSV A2. The assay can be described thus: RSV NHBE EC50 (RSV A2 antiviral assay in NHBE cells). Particulars: read-out: RSV NHBE EC50. An outline of the steps:
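Antiviral activity against RSV A2 was determined in NHBE cells used within 6 passages, with cell viability quantified by CellTiter-Glo after a 4-day infection.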

The subject of assay [2] is RSV strain A2. The assay can be described thus: microbe, parasite or virus in culture. Particulars: read-out: RSV HEp-2 EC50. An outline of the steps:
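Cytopathic-effect protection assay: HEp-2 cells (50,000/mL) infected with pre-titered RSV A2 onto 3-fold serial compound dilutions, incubated 4 days at 37° C. Cell viability read by CellTiter-Glo luminescence; percent inhibition derived against 0% and 100% virus-inhibition controls.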

The test system of assay [3] is DENV2 replicon. The assay can be described thus: DENV-2 Huh-7 Rep EC50 (replicon luminescence). The following applies: read-out: DENV-2 REP Huh7 EC50. The method, then:
In 384 well plates (Greiner, Cat #781091), compounds were acoustically transferred at 200 nl per well in a 8 compound (4 replicates) or 40 compound dose response format (3 replicates). For all plates tested, Balapiravir, GS-5734 and NITD008 were included as positive inhibition controls alongside 0% inhibition, DMSO-only negative control wells. Following compound addition, Huh-7 cells containing the DENV2 replicon construct were harvested following standard cell culture procedures and were adjusted to a concentration of 1.25E5 cells/mL in cell culture media composed of cDMEM without genticin. 40 μL of the cell stock was then added to each well for a final cell density of 5,000 cells/well. Cell and compound mixtures were incubated at 37° C./5% CO2 for 48 hours. Prior to harvesting cells, EnduRen Live Cell Substrate (Promega, Cat #E6481) was prepared by suspending 3.4 mg into 100 uL of DMSO to generate a 60 mM stock solution. The stock solution was then diluted 1:200 in pre-warmed cDMEM and 10 uL of this diluted solution was added to each well of the 384 well plates. Plates were then centrifuged at 500 rpm briefly and were placed on a plate shaker for 2 min. Following mixing, plates were incubated at […] for 1.5 hours prior to measuring luminescence on an Envision luminometer.

Assay [4] deals with HRV16. The assay can be described thus: HRV16 HeLa EC50 (cytopathic effect in H1-HeLa cells). Particulars: read-out: HRV16 HeLa EC50. Put shortly:
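H1-HeLa cells seeded one day before, given 3-fold serial compound dilutions in triplicate just prior to infection with pre-titrated virus. Incubated 96 h at 33 °C/5% CO2; protection from cytopathic effect read as viability by CellTiter-Glo luminescence, normalised to infected untreated (0%) and uninfected (100%) controls.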
A general note: Cytopathic effects are the visible damage that an infection or toxin causes in cultured cells.

The mark [5] stands for this setting: human respiratory syncytial virus, NHBE, 96 h, Table 3, NHBE cells, RSV A2, 4 days.
Setting [6] is: human respiratory syncytial virus, HEp-2, 96 h, Table 3, HEp-2 cells, RSV A2, 4 days.
Setting [7] is: Dengue virus, DENV2, Huh-7, 48 h.
The mark [8] stands for this setting: 96 h, Table 3, H1-HeLa cells, 96 h.
[9] abbreviates: Table 3, NHBE cells, RSV A2, 4 days.
Setting [10] is: Table 3, HEp-2 cells, RSV A2, 4 days.
[11] abbreviates: Table 3, Huh-7 DENV2 replicon cells, 48 hours.

Each structure is given as a SMILES string. Read-outs that look alike come from different tables or passages of the source.

`CC(=O)OC1[C@H](c2ccc3c(N)ncnn23)O[C@](C#N)(COP(=O)(N[C@@H](C)C(=O)OCC2CCOCC2)Oc2ccccc2)[C@H]1OC(C)=O` (stereo in doubt) [Example 110, (2R,3S,4R,5S)-5-(4-aminopyrrolo[2,1-f][1,2,4]triazin-7-yl)-2-cyano-2-((((((S)-1-oxo-1-((tetrahydro-2H-pyran-4-yl)methoxy)propan-2-yl)amino)(phenoxy)phosphoryl)oxy)methyl)tetrahydrofuran-3,4-diyl diacetate]: the concentration for a half-maximal effect (EC50) – broadly, the midpoint of the concentration-response curve – in assay [1] (setting [5]) amounted to 40 nM; in assay [2] (setting [6]), 327 nM; in assay [3] (setting [7]), 56300 nM; in assay [4] (setting [8]) it was 2510 nM.
With `CCC(=O)O[C@H]1[C@H](c2ccc3c(N)ncnn23)O[C@](C#N)(COP(=O)(N[C@@H](C)C(=O)OC2COC2)Oc2ccccc2)[C@H]1OC(=O)CC` (single isomer, unassigned) [Example 175], the 50% effective concentration (EC50) in assay [1] (setting [9]) was found to be 17 nM; in assay [2] (setting [10]), 87 nM; in assay [3] (setting [11]) it was 9510 nM; in assay [4] (Table 3, H1-HeLa cells, 96 h) it was 85 nM.
As to `CCC(=O)O[C@H]1[C@H](c2ccc3c(N)ncnn23)O[C@](C#N)(CO[P@](=O)(N[C@@H](C)C(=O)OCC2CCOCC2)Oc2ccccc2)[C@H]1OC(=O)CC` [Example 109], the concentration for a half-maximal effect (EC50) in assay [1] (setting [9]) came out at 32 nM; in assay [2] (setting [10]) it was 103 nM; in assay [3] (setting [11]) it was 26300 nM; in assay [4] (Table 3, H1-HeLa cells, 96 h), 379 nM.
Consider `CCC(=O)OC1C(c2ccc3c(N)ncnn23)OC(C#N)(COP(=O)(NC(C)C(=O)OCC2CCC2)Oc2ccccc2)C1OC(=O)CC` (centres unmarked) [Example 92], for which the EC50 came out at 33 nM in assay [1] (setting [9]); 41 nM in assay [2] (setting [10]); 13600 nM in assay [3] (setting [11]); 104 nM in assay [4] (Table 3, H1-HeLa cells, 96 h).
Regarding `CC(C)C(=O)O[C@H]1[C@H](c2ccc3c(N)ncnn23)O[C@](C#N)(CO[P@@](=O)(N[C@@H](C)C(=O)O[C@H]2CC[C@H](C(C)(C)C)CC2)Oc2ccccc2)[C@H]1OC(=O)C(C)C` [Example 80, (2R,3S,4S,5S)-5-(4-Aminopyrrolo[2,1-f][1,2,4]triazin-7-yl)-2-((((S)-(((S)-1-(((1r,4S)-4-(tert-butyl)cyclohexyl)oxy)-1-oxopropan-2-yl)amino)(phenoxy)phosphoryl)oxy)methyl)-2-cyanotetrahydrofuran-3,4-diyl bis(2-methylpropanoate)], the EC50 in assay [1] (setting [5]) was determined as 158 nM; in assay [2] (setting [6]), 1180 nM; in assay [3] (setting [7]), 5300 nM; in assay [4] (setting [8]), 1570 nM.
`COC(=O)[C@H](C)N[P@@](=O)(OC[C@@]1(C#N)O[C@@H](c2ccc3c(N)ncnn23)[C@H](OC(C)=O)[C@@H]1OC(C)=O)Oc1ccccc1` (single isomer, unassigned) [Example 130]: the concentration for a half-maximal effect (EC50) in assay [1] (setting [5]) came to 59 nM; in assay [2] (setting [6]), 198 nM; in assay [3] (setting [7]) it was 21000 nM; in assay [4] (setting [8]), 1780 nM.
The matching figures for `CCC(=O)O[C@H]1[C@H](c2ccc3c(N)ncnn23)O[C@](C#N)(COP(=O)(N[C@@H](C)C(=O)OCC2COC2)Oc2ccccc2)[C@H]1OC(=O)CC` (stereo partly drawn) [Example 203, (2R,3S,4S,5S)-5-(4-aminopyrrolo[2,1-f][1,2,4]triazin-7-yl)-2-cyano-2-((((((S)-1-(oxetan-3-ylmethoxy)-1-oxopropan-2-yl)amino)(phenoxy)phosphoryl)oxy)methyl) tetrahydrofuran-3,4-diyl dipropionate]: 38 nM, 95 nM, 9500 nM and 359 nM.
Turning to `COC(=O)[C@H](C)NP(=O)(OC[C@@]1(C#N)O[C@@H](c2ccc3c(N)ncnn23)[C@H](OC(=O)C(C)C)[C@@H]1OC(=O)C(C)C)Oc1ccccc1` (stereo partly drawn) [Example 138, (2R,3S,4S,5S)-5-(4-aminopyrrolo[2,1-f][1,2,4]triazin-7-yl)-2-cyano-2-((((((S)-1-methoxy-1-oxopropan-2-yl)amino)(phenoxy)phosphoryl)oxy)methyl)tetrahydrofuran-3,4-diyl bis(2-methylpropanoate)], the EC50 in assay [1] (setting [5]) was 17 nM; in assay [2] (setting [6]), 63 nM; in assay [3] (setting [7]) it was 5200 nM; in assay [4] (setting [8]), 101 nM.
Take `CC(C)C(=O)O[C@H]1[C@H](c2ccc3c(N)ncnn23)O[C@](C#N)(COP(=O)(N[C@@H](C)C(=O)OC2COC2)Oc2ccccc2)[C@H]1OC(=O)C(C)C` (stereo partly drawn) [Example 184, (2R,3S,4S,5S)-5-(4-aminopyrrolo[2,1-f][1,2,4]triazin-7-yl)-2-cyano-2-((((((S)-1-(oxetan-3-yloxy)-1-oxopropan-2-yl)amino)(phenoxy)phosphoryl)oxy)methyl) tetrahydrofuran-3,4-diyl bis(2-methylpropanoate)]: the half-maximal effective concentration (EC50) in assay [1] (setting [5]) is 13 nM; in assay [1] (human respiratory syncytial virus, NHBE, Table 5 comparative activity, 2',3'-OH vs -OC(O)iPr), 13 nM; in assay [2] (setting [6]) it was 79 nM; in assay [2] (human respiratory syncytial virus, HEp-2, Table 5 comparative activity, 2',3'-OH vs -OC(O)iPr) it was 79 nM; in assay [3] (setting [7]), 5960 nM; in assay [4] (setting [8]), 57 nM. For the same molecule, the concentration for a half-maximal effect (EC50) in assay [4] (HeLa, Table 5 comparative activity, 2',3'-OH vs -OC(O)iPr) is 57 nM.
Regarding `CCOC(=O)[C@H](C)N[P@](=O)(OC[C@@]1(C#N)O[C@@H](c2ccc3c(N)ncnn23)[C@H](OC(=O)CC)[C@@H]1OC(=O)CC)Oc1ccccc1` [Example 105, (2R,3S,4S,5S)-5-(4-Aminopyrrolo[2,1-f][1,2,4]triazin-7-yl)-2-cyano-2-((((S)-(((S)-1-ethoxy-1-oxopropan-2-yl)amino)(phenoxy)phosphoryl)oxy)methyl) tetrahydrofuran-3,4-diyl dipropionate], the EC50 in assay [1] (setting [5]) was determined as 13 nM; in assay [2] (setting [6]), 57 nM; in assay [3] (setting [7]), 12900 nM; in assay [4] (setting [8]), 182 nM.
On to `CC(C)C(=O)O[C@H]1[C@H](c2ccc3c(N)ncnn23)O[C@](C#N)(COP(=O)(N[C@@H](C)C(=O)OCC2CCOCC2)Oc2ccccc2)[C@H]1OC(=O)C(C)C` (single isomer, unassigned) [Example 182], for which the half-maximal effective concentration (EC50) in assay [1] (setting [9]) worked out at 17 nM; in assay [2] (setting [10]), 88 nM; in assay [3] (setting [11]), 3500 nM; in assay [4] (Table 3, H1-HeLa cells, 96 h), 177 nM.
For the molecule `CC(C)[C@H](N)C(=O)O[C@H]1[C@H](c2ccc3c(N)ncnn23)O[C@](C#N)(CO[P@@](=O)(N[C@@H](C)C(=O)OC2CCCCC2)Oc2ccccc2)[C@H]1OC(=O)[C@@H](N)C(C)C` [Example 122, (2R,3S,4S,5S)-5-(4-aminopyrrolo[2,1-f][1,2,4]triazin-7-yl)-2-cyano-2-((((S)-(((S)-1-(cyclohexyloxy)-1-oxopropan-2-yl)amino)(phenoxy)phosphoryl)oxy)methyl)tetrahydrofuran-3,4-diyl (2S,2'S)-bis(2-amino-3-methylbutanoate)], the half-maximal effective concentration (EC50) in assay [1] (setting [5]) was found to be 90 nM; in assay [2] (setting [6]) it was 79 nM; in assay [3] (setting [7]), 5540 nM; in assay [4] (setting [8]) it was 301 nM.
With `COCCOCC(=O)O[C@H]1[C@H](c2ccc3c(N)ncnn23)O[C@](C#N)(CO[P@@](=O)(N[C@@H](C)C(=O)OC(C)C)Oc2ccccc2)[C@H]1OC(=O)COCCOC` [Example 161, (2R,3S,4S,5S)-5-(4-aminopyrrolo[2,1-f][1,2,4]triazin-7-yl)-2-cyano-2-((((S)-(((S)-1-isopropoxy-1-oxopropan-2-yl)amino)(phenoxy)phosphoryl)oxy)methyl) tetrahydrofuran-3,4-diyl bis(2-(2-methoxyethoxy)acetate)], the EC50 is 1160 nM in assay [1] (setting [5]), 151 nM in assay [2] (setting [6]), 22500 nM in assay [3] (setting [7]) and 1230 nM in assay [4] (setting [8]).
Consider `CCCOC(=O)[C@H](C)NP(=O)(OC[C@@]1(C#N)O[C@@H](c2ccc3c(N)ncnn23)[C@H](OC(=O)CC)[C@@H]1OC(=O)CC)Oc1ccccc1` (single isomer, unassigned) [Example 188], for which the EC50 in assay [1] (setting [9]) was 28 nM; in assay [2] (setting [10]) it was 31 nM; in assay [3] (setting [11]) it was 6920 nM; in assay [4] (Table 3, H1-HeLa cells, 96 h) it was 102 nM.
